This is an account of results in PMC8162360, “Total synthesis of biseokeaniamides A–C and late-stage electrochemically-enabled peptide analogue synthesis” (Chemical Science, 2020).

Molecules are shown by their SMILES. Like-named read-outs stand apart in the source and are kept apart here. Non-standard residues stand in square brackets, D forms with d. Residues, ends and D or L forms follow the SMILES beside them. *: point of attachment. NMeF = CN[C@@H](Cc1ccccc1)C(=O)O; NMeV = CN[C@H](C(=O)O)C(C)C; Butyryl = CCCC(=O)*; X1 = CN(Cc1cccs1)*

The conditions of series [1]: cited from earlier work. The text has this: Probing the electrochemical generation and reactivity of N,O-acetals | column: pKa (R–OH)[27,28] || The reactivity of the methanol-derived N,O-acetal 6a was examined using a Friedel–Crafts-type reaction with thiophene in the presence of TFA (2.0 equiv.), which serves to regenerate the N-acyliminium for nucleophilic attack. […] How ...

The subject of series [2] is A549 cells (ATCC CCL-185). The class given is cell-based. The conditions noted are these: 72 h. Here is the method:
(§1) Evaluation of biological activity
(§2) Cell Culture of A549 and HeLa S3 Cells
(§3) 1. A549 cells (ATCC® CCL-185) were cultured at 37 °C with 5% CO2 in DMEM/F12 (Ham)
(§4) medium (Gibco, CAT#11330-032) supplemented with 10% fetal bovine serum (FBS) (Sigma-
(§5) 2. HeLa S3 cells were cultured at 37 °C with 5% CO2 in F-12K nutrient mixture, Kaighn's
(§6) modification medium (Gibco, CAT#21127-022) supplemented with 10% fetal bovine serum
(§7) (FBS) (Sigma-Aldrich, CAT#F9423).
(§8) 3. To subculture cells, media was aspirated and cell monolayers were washed once with dPBS
(§9) (Gibco), and then detached using Trypsin-EDTA (0.25%, Gibco CAT#25200114), followed
(§10) by neutralisation with growth media. Quantitation of cell number was obtained using the Life
(§11) Technologies Countess II automated cell counter.
(§12) MTT 72 Hour Viability Assay
(§13) 1. A549 and HeLa S3 cells were seeded at 600 cells/well in 40 µL into a Corning clear 384-
(§14) well plate (CAT# 3701) using the Biotek EL406, and cultured overnight.
(§15) 2. Cells were then treated with various concentrations of compounds for 72 h. 0.2% DMSO
(§16) and 25 µM Etoposide (Sigma-Aldrich) were used as controls.
(§17) 3. 10 µL of MTT reagent (ThermoFisher, diluted to 2.5 mg/mL in DPBS) was then added to
(§18) cells and incubated at 37 °C for 1.5 h.
4. Plates were then centrifuged at 800 × g for 5 min and the supernatant flicked off. 25 µL of […]
5. Absorbance was then read at 570 nm using the PerkinElmer EnVision Multimode plate […]

The test system of series [3] is HeLa S3 cells. The series is described as follows: MTT 72 hour viability assay, HeLa S3 cells. The class given is cell-based. As to the method:
as §1, §2, §3, §4, §5, §6, §7, §8, §9, §10, §11, §12, §13, §14, §15, §16, §17, §18
4. Plates were then centrifuged at 800 × g for 5 min and the supernatant flicked off. 25 µL of
isopropanol/HCl solution was then added to each well using the Biotek EL406 and the plates
5. Absorbance was then read at 570 nm using the PerkinElmer EnVision Multimode plate
6. Statistical Analysis: Results were normalised to the average blank value (media only
control), and then presented as a percentage of the control (0.2% DMSO (vehicle) treated cells)

[4] abbreviates: pKa of the alcohol or carboxylic acid R-OH used in the electrolysis.

In the case of `OC(C(F)(F)F)C(F)(F)F` [(CF3)2CH, hexafluoroisopropanol], in series [1] (setting [4]), the “pKa (R–OH)” value is 9.3.

Regarding `OCC(F)(F)F` [CF3CH2, trifluoroethanol], the “pKa (R–OH)” value in series [1] is on record as 12.5. In the case of `O=C(O)C(Cl)(Cl)Cl` [Cl3CCO], the “pKa (R–OH)” value in series [1] (setting [4]) was 0.85.

In the case of `C=CCCN(C)C(=O)[C@@H](NC(=O)[C@H](CC(C)C)NC(=O)[C@H](Cc1ccccc1)NC(C)=O)C(C)C` [Compound 19], the IC50 turned out to be 7.9 µM in series [2] and 9.2 µM in series [3] (72 h). Besides, the “cytotoxicity compared with natural products 1a-1c” value in series [3] is “enhanced cytotoxicity in relation to the natural products”.

Take `CCCC(=O)N(C)[C@H](C(=O)N1CCC[C@H]1C(=O)N(C)[C@@H](Cc1ccccc1)C(=O)N[C@@H](CC(C)C)C(=O)N[C@H](C(=O)N(C)Cc1cccs1)C(C)C)C(C)C` [Compound 21] (Butyryl-[NMeV]P[NMeF]LV-X1): the IC50 in series [2] was 27.4 µM; in series [3] (72 h), 18.4 µM. In addition, in series [3] (comparative HeLa cell viability assays, Fig. 1A, MTT, 72 h), the “cytotoxicity compared with natural products 1a-1c” value is on record as “enhanced cytotoxicity in relation to the natural products”.

With `CO` [Me, methanol], the “pKa (R–OH)” value in series [1] (setting [4]) is 15.5.
